Measurements from PubChem BioAssay AID330 (DTP/NCI, 2004).
Where “and” joins values, the source holds several entries; their conditions need not be identical. Identical values can stand only once. Toxic doses and inconclusive results are not listed.

Tested on: P388 leukemia ip, CD2F1 mice, survival T/C
Experiment: NCI In Vivo Anticancer Drug Screen. Data for tumor model P388 Leukemia (intraperitoneal) in CD2F1 (CDF1) mice
Settings: endpoint: median survival time, higher = longer survival
In short: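 Mice carrying the transplanted tumor received test compound or vehicle. Survival was recorded in each group, and the value is the treated-group measurement divided by that of the vehicle-treated control group.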

[1] = dose: 50.0 mg/kg/injection, schedule: Q01DX009 (ip), vehicle: saline with Tween-80
[2] = dose: 100.0 mg/kg/injection, schedule: Q01DX009 (ip), vehicle: saline with Tween-80
[3] = dose: 200.0 mg/kg/injection, schedule: Q01DX009 (ip), vehicle: saline with Tween-80
[4] = dose: 50.0 mg/kg/injection, schedule: Q01DX005 (ip), vehicle: Klucel (hydroxypropylcellulose) (HPC)
[5] = dose: 100.0 mg/kg/injection, schedule: Q01DX005 (ip), vehicle: Klucel (hydroxypropylcellulose) (HPC)
[6] = dose: 200.0 mg/kg/injection, schedule: Q01DX005 (ip), vehicle: Klucel (hydroxypropylcellulose) (HPC)
[7] = dose: 50.0 mg/kg/injection, schedule: Q01DX005 (ip), vehicle: saline with Tween-80
[8] = dose: 100.0 mg/kg/injection, schedule: Q01DX005 (ip), vehicle: saline with Tween-80
[9] = dose: 100.0 mg/kg/injection, schedule: Q01DX001 (ip), vehicle: Klucel (hydroxypropylcellulose) (HPC)
[10] = dose: 60.0 mg/kg/injection, schedule: Q01DX005 (ip), vehicle: saline with Tween-80
[11] = dose: 120.0 mg/kg/injection, schedule: Q01DX005 (ip), vehicle: saline with Tween-80

COC12C(COC(N)=O)C3=C(C(=O)C(C)=C(N4CC4)C3=O)N1CC1NC12 (stereo unspecified)
T/C (dose: 0.13 mg/kg/injection, schedule: Q04DX003 (ip), vehicle: saline sonified): 154 % of control
T/C (dose: 0.25 mg/kg/injection, schedule: Q04DX003 (ip), vehicle: saline sonified): 163 % of control
T/C (dose: 0.33 mg/kg/injection, schedule: Q04DX003 (ip), vehicle: saline with Tween-80): 91 % of control
T/C (dose: 0.5 mg/kg/injection, schedule: Q04DX003 (ip), vehicle: saline sonified): 181 % of control
T/C (dose: 0.75 mg/kg/injection, schedule: Q04DX003 (ip), vehicle: saline with Tween-80): 87 % of control

COc1cc2c(cc1OC)-c1cc3cc(OC)c(OC)cc3c(C)[n+]1CC2 (tested in a mixture with another compound)
T/C (dose: 1.56 mg/kg/injection, schedule: Q01DX009 (ip), vehicle: water): 102 % of control
T/C (dose: 3.13 mg/kg/injection, schedule: Q01DX009 (ip), vehicle: water): 102 % of control
T/C (dose: 6.25 mg/kg/injection, schedule: Q01DX009 (ip), vehicle: water): 111 % of control
T/C (dose: 12.5 mg/kg/injection, schedule: Q01DX009 (ip), vehicle: water): 118 % of control
T/C (dose: 14.8 mg/kg/injection, schedule: Q01DX009 (ip), vehicle: water): 113 % of control
T/C (dose: 22.0 mg/kg/injection, schedule: Q01DX009 (ip), vehicle: water): 109 % of control
T/C (dose: 33.0 mg/kg/injection, schedule: Q01DX009 (ip), vehicle: water): 117 % of control
T/C (dose: 50.0 mg/kg/injection, schedule: Q01DX009 (ip), vehicle: water): 116 % of control
T/C (dose: 75.0 mg/kg/injection, schedule: Q01DX009 (ip), vehicle: water): 97 % of control

O=C(/C=C\N(c1ccccc1)c1ccccc1)c1ccccc1
T/C [1]: 90 % of control
T/C [2]: 93 % of control
T/C [3]: 94 % of control

O=S(=O)(O/C(=C(\OS(=O)(=O)C(F)(F)F)c1ccccc1)c1ccccc1)C(F)(F)F
T/C [4]: 97 % of control
T/C [5]: 98 % of control
T/C [6]: 91 % of control

O=C(NC(=S)c1cccs1)Nc1ccccc1
T/C (dose: 4.0 mg/kg/injection, schedule: Q01DX009 (ip), vehicle: saline with Tween-80): 89 % of control
T/C (dose: 8.0 mg/kg/injection, schedule: Q01DX009 (ip), vehicle: saline with Tween-80): 94 % of control
T/C (dose: 16.0 mg/kg/injection, schedule: Q01DX009 (ip), vehicle: saline with Tween-80): 87 % of control
T/C [1]: 89 % of control
T/C [2]: 100 % of control

C/C=C1\C[C@H]2C(=O)Nc3cc(O)c(OC)cc3C(=O)N2C1
T/C (dose: 25.0 mg/kg/injection, schedule: Q01DX005 (ip), vehicle: saline with Tween-80): 96 % of control
T/C [7]: 105 % of control
T/C [8]: 106 % of control

Cc1cccc(-c2nc3c(C)nc(-c4ccccc4)nc3n2Nc2ccccc2)c1
T/C [9]: 87 % of control

O=C1c2cccnc2-c2ncccc21
T/C [10]: 93 % of control
T/C [11]: 91 % of control

CC(C)(C)N1OC2C=CC1CC2O (stereo unspecified) (tested in a mixture with another compound)
T/C (dose: 25.0 mg/kg/injection, schedule: Q01DX001 (ip), vehicle: Klucel (hydroxypropylcellulose) (HPC)): 113 % of control
T/C (dose: 50.0 mg/kg/injection, schedule: Q01DX001 (ip), vehicle: Klucel (hydroxypropylcellulose) (HPC)): 114 % of control
T/C [9]: 107 % of control

C/C(=C\C(=O)c1cccc(F)c1)N1CCN(c2cccc(C(F)(F)F)c2)CC1
T/C [4]: 93 % of control
T/C [5]: 94 % of control

O=S(=O)(/N=C1/c2ccccc2/C(=N/S(=O)(=O)c2ccccc2)C2CC=CCC12)c1ccccc1 (stereo unspecified)
T/C (dose: 6.25 mg/kg/injection, schedule: Q01DX001 (ip), vehicle: saline with Tween-80): 100 % of control
T/C (dose: 12.5 mg/kg/injection, schedule: Q01DX001 (ip), vehicle: saline with Tween-80): 95 % of control
T/C (dose: 25.0 mg/kg/injection, schedule: Q01DX001 (ip), vehicle: saline with Tween-80): 100 % of control

CCOC(=O)c1cccc(C(=O)OCC)c1
T/C [1]: 99 % of control
T/C [2]: 106 % of control
T/C [3]: 108 % of control

COc1cc2c(cc1O)CCN[C@H]2C
T/C (dose: 50.0 mg/kg/injection, schedule: Q01DX005 (ip), vehicle: saline): 100 % of control
T/C (dose: 100.0 mg/kg/injection, schedule: Q01DX005 (ip), vehicle: saline): 100 % of control
T/C (dose: 200.0 mg/kg/injection, schedule: Q01DX005 (ip), vehicle: saline): 108 % of control

COc1cc(C/C(=N/N=C(N)N)C(=O)O)cc(OC)c1OC
T/C (dose: 100.0 mg/kg/injection, schedule: Q01DX001 (ip), vehicle: saline): 99 % of control
T/C (dose: 200.0 mg/kg/injection, schedule: Q01DX001 (ip), vehicle: saline): 100 % of control
T/C (dose: 400.0 mg/kg/injection, schedule: Q01DX001 (ip), vehicle: saline): 100 % of control

O=C1Nc2ccccc2C1(O)Cc1ccccn1 (stereo unspecified)
T/C (dose: 25.0 mg/kg/injection, schedule: Q01DX009 (ip), vehicle: saline with Tween-80): 105 % of control
T/C [1]: 95 % of control
T/C [2]: 107 % of control
T/C [3]: 103 % of control

C=C(c1ccccc1)C1(O)CCCCC1N(C)C (stereo unspecified)
T/C (dose: 25.0 mg/kg/injection, schedule: Q04DX002 (ip), vehicle: saline with Tween-80): 102 % of control
T/C (dose: 50.0 mg/kg/injection, schedule: Q04DX002 (ip), vehicle: saline with Tween-80): 100 % of control
T/C (dose: 100.0 mg/kg/injection, schedule: Q04DX002 (ip), vehicle: saline with Tween-80): 94 % of control

c1ccc(-c2[nH]nc3nc4c(nc23)CCCC4)cc1
T/C [4]: 89 % of control
T/C [5]: 99 % of control
T/C [6]: 92 % of control

Cc1ccc2c(c1)C1(SC(C)C(=O)N1c1ccc(Br)cc1)C(=O)N2 (stereo unspecified)
T/C [10]: 94 % of control
T/C [11]: 96 % of control
T/C (dose: 240.0 mg/kg/injection, schedule: Q01DX005 (ip), vehicle: saline with Tween-80): 97 % of control

CC(=O)C[n+]1cccc(S)c1-c1ccccc1
T/C [7]: 97 % of control
T/C [8]: 105 % of control
T/C (dose: 200.0 mg/kg/injection, schedule: Q01DX005 (ip), vehicle: saline with Tween-80): 97 % of control

S=C(N/N=C/c1ccc(Cl)s1)NC12CC3CC(CC(C3)C1)C2
T/C (dose: 30.0 mg/kg/injection, schedule: Q01DX005 (ip), vehicle: Klucel (hydroxypropylcellulose) (HPC)): 87 % of control
T/C (dose: 60.0 mg/kg/injection, schedule: Q01DX005 (ip), vehicle: Klucel (hydroxypropylcellulose) (HPC)): 93 % of control
T/C (dose: 120.0 mg/kg/injection, schedule: Q01DX005 (ip), vehicle: Klucel (hydroxypropylcellulose) (HPC)): 102 % of control
T/C (dose: 240.0 mg/kg/injection, schedule: Q01DX005 (ip), vehicle: Klucel (hydroxypropylcellulose) (HPC)): 100 % of control

O=C(O)c1cc(C(=O)CCCCC(=O)c2cc(C(=O)O)c(O)c3ccccc23)c2ccccc2c1O
T/C [1]: 90 % of control
T/C [2]: 90 % of control
T/C [3]: 92 % of control

CCOc1cc2cc(CCO)c(C)cc2cn1
T/C (dose: 6.25 mg/kg/injection, schedule: Q01DX009 (ip), vehicle: distilled water + Tween-80): 110 % of control
T/C (dose: 12.5 mg/kg/injection, schedule: Q01DX009 (ip), vehicle: distilled water + Tween-80): 108 % of control
T/C (dose: 25.0 mg/kg/injection, schedule: Q01DX009 (ip), vehicle: distilled water + Tween-80): 94 % of control
T/C (dose: 50.0 mg/kg/injection, schedule: Q01DX009 (ip), vehicle: distilled water + Tween-80): 94 % of control
T/C (dose: 100.0 mg/kg/injection, schedule: Q01DX009 (ip), vehicle: distilled water + Tween-80): 100 % of control and 90 % of control
T/C (dose: 200.0 mg/kg/injection, schedule: Q01DX009 (ip), vehicle: distilled water + Tween-80): 95 % of control
T/C (dose: 400.0 mg/kg/injection, schedule: Q01DX009 (ip), vehicle: distilled water + Tween-80): 104 % of control

O=c1[nH]cnc2nc(Cl)[nH]c12
T/C [4]: 98 % of control
T/C [5]: 98 % of control
T/C [6]: 95 % of control

COc1cc(OC)c(NC(=O)NNC(=O)C(=O)NC2CC2)cc1Cl
T/C [1]: 99 % of control
T/C [2]: 97 % of control
T/C [3]: 98 % of control

O=C(O)C1CC1.[Ag]
T/C (dose: 3.12 mg/kg/injection, schedule: Q01DX009 (ip), vehicle: saline with Tween-80): 153 % of control
T/C (dose: 6.25 mg/kg/injection, schedule: Q01DX009 (ip), vehicle: saline with Tween-80): 97 % of control
